Laboratory results from patent US20120021012A1, “NOVEL PHARMACEUTICAL USES FOR NANOPARTICLES” (CENTRE NATIONAL DE LA RECHERCHE SCIENTIFIQUE (C.N.R.S), priority 2008, published 2012).

Test system: human squamous carcinoma cell line HSC-2
Assay: MTT cell survival assay, HSC human cancer cell line
Format: cell-based
Conditions: paclitaxel applied 72 hours, AT84 and SG lines (FIG. 4)
Method: Cell survival was measured using a colorimetric method with 3-(4,5-dimethylthiazol-2-yl)-2,5-diphenyltetrazolium bromide (MTT). This molecule of yellow colour is reduced by mitochondrial dehydrogenase enzymes to a blue-coloured salt. This allows cell viability to be quantified in response to a treatment.
Cell survival was measured before and after exposure to different concentrations of SiC nanoparticles (0.1-0.5-1 mg/mL in a suspension of RPMI medium 10% FCS).
The cells were cultured in 96-well plates in the presence of SiC nanoparticles for 18 hours after which the media were replaced by standard culture media without any nanoparticles (RPMI medium 10% FCS, Sigma).
Cell viability was measured after different times (24, 48 and 72 hours). […]
Cell viability was measured by the difference in optical density at wavelengths of 450 and 504 nm, using a spectrophotometer connected to a computer system (Power Wave, Bio-Tek Instrument Inc.). The measured absorbency is then directly proportional to the number of living cells. The results are expressed as percentage survival measured under the initial conditions before exposure of the cells to the SiC nanoparticles. […]
Cell survival was measured using a colorimetric method with 3-(4,5-diemthylthiazol-2-yl)-2,5-diphenyltetrazolium bromide (MTT) such as described above in Example 1. […]
Cell viability was measured after 72 hours. […]

CC(=O)O[C@H]1C(=O)[C@@]2(C)[C@H]([C@H](OC(=O)c3ccccc3)[C@]3(O)C[C@H](OC(=O)[C@H](O)[C@@H](NC(=O)c4ccccc4)c4ccccc4)C(C)=C1C3(C)C)[C@]1(OC(C)=O)CO[C@@H]1C[C@@H]2O [paclitaxel]
inhibition percentages of cell survival compared with the SiC nanoparticles: of the same order
